Test results taken from patent US6897222B2, “Pyrido[2,1-a]isoquinoline derivatives” (Hoffmann-La Roche Inc., priority 2001, dated 2005).

Target: T1, human DPP-IV (Homo sapiens, UniProt P27487)
T1 construct: made in house; host or cells: Pichia pastoris
Experiment: DPP-IV activity assay (fluorogenic or colorimetric), IC50 determination
Assay type: biochemical
Details: natural human DPP-IV from plasma pool or recombinant human DPP-IV; substrate 50 μM (fluorogenic) or 200 μM (colorimetric); 37° C., pH 7.8
Method: Activity of DPP-IV inhibitors are tested with natural human DPP-IV derived from a human plasma pool or with recombinant human DPP-IV. Human citrate plasma from different donors is pooled, filtered through a 0.2 micron membrane under sterile conditions and aliquots of 1 ml are shock frozen and stored at −120° C. until used. In the colorimetric DPP-IV assay 5 to 10 μl human plasma and in the fluorometric assay 1.0 μl of human plasma in a total assay volume of 100 μl is used as an enzyme source. […] Human DPP-IV is expressed and purified from the culture medium using conventional column chromatography including size exclusion and anion and cation chromatography. […] In the colorimetric DPP-IV assay 20 ng rec.-h DPP-IV and in the fluorometric assay 2 ng rec-h DPP-IV in a total assay volume of 100 μl is used as an enzyme source.
A 20 mM stock solution in 10% DMF/H2O is stored at −20° C. until use.
In the colorimetric assay H-Ala-Pro-pNA. […] A 10 mM stock solution in 10% MeOH/H2O is stored at −20° C. until use.
Initial rate constants are calculated by best fit linear regression.
DPP-IV activity assays are performed in 96 well plates at 37° C. in a total assay volume of 100 μl. The assay buffer consists of 50 mM Tris/HCl pH 7.8 containing 0.1 mg/ml BSA and 100 mM NaCl. Test compounds are solved in 100% DMSO, diluted to the desired concentration in 10% DMSO/H2O. The final DMSO concentration in the assay is 1% (v/v).
Compounds are with (10 minutes at 37° C.) and without preincubation with the enzyme. Enzyme reactions are started with substrate application followed by immediate mixing.
Kinetic parameters of the enzyme reaction are calculated at at least 5 different substrate concentrations and at least 5 different test compound concentrations.

T1 sequence (P27487 31-766): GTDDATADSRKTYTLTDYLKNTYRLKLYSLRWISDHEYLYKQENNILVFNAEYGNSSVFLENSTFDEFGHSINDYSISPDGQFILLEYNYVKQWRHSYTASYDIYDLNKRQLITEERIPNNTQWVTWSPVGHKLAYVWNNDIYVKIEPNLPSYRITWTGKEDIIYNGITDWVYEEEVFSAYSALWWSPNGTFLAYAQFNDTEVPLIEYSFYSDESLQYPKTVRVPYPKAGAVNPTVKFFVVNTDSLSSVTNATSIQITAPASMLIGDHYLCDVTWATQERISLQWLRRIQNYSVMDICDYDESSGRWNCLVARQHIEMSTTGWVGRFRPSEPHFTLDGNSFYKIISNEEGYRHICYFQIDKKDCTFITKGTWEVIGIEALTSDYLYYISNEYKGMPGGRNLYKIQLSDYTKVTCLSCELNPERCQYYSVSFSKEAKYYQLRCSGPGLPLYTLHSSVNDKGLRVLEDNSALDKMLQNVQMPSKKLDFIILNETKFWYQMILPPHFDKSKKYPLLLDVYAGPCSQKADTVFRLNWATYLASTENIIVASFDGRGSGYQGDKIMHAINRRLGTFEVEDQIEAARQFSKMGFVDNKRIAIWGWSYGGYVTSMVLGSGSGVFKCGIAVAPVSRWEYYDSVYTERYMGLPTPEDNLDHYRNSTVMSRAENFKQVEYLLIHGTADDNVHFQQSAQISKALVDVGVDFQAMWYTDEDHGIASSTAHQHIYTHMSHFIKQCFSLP

Row | SMILES | IC50 [nM]
1 | CCCCC1CN2C(CC1N)c1cc(OC)c(OC)cc1C1CCCCC12 (mixture of isomers) [Example 17, rac-7β-Butyl-11,12-dimethoxy-2,3,4,4a,6,7,8,9,9a,13bβ-decahydro-1H-pyrido[1,2-f]phenanthridin-8β-ylamine] | 140
2 | CCCCC1CN2C(CC1N)c1cc(OC)c(OC)cc1C1CCCCC12 (racemic) [Example 36, rac-7β-Butyl-11,12-dimethoxy-2,3,4,4a,6,7,8,9,9a,13bβ-decahydro-1H-pyrido[1,2-f]phenanthridin-8β-ylamine chlorohydrate (1:2)] | 160

Other lines, results leading:

Row | IC50 [nM] | SMILES
3 | 570 | COc1cc2c(cc1OC)C1CC(N)C(CCC(C)C)CN1CC2 (racemic) [Example 5, rac-9,10-Dimethoxy-3β-(3-methyl-butyl)-1,3,4,6,7,11bβ-hexahydro-2H-pyrido[2,1-a]isoquinolin-2α-ylamine]
4 | 620 | CCCC[C@@H]1CN2CCc3cc(O)c(OC)cc3[C@H]2C[C@H]1N (racemic) [Example 39, rac-2α-Amino-3β-butyl-10-methoxy-1,3,4,6,7,11bβ-hexahydro-2H-pyrido[2,1-a]isoquinolin-9-ol chlorohydrate (1:2)]
5 | 340 | CCCCC1CN2CCc3cc(O)c(OC)cc3C2CC1N (racemic) [Example 43b, rac-2α-amino-3β-butyl-10-methoxy-1,3,4,6,7,11bβ-hexahydro-2H-pyrido[2,1-a]isoquinolin-9-ol]
